According to patent publication US10864201B2, “Heteroaromatic compounds as Vanin inhibitors” (Boehringer Ingelheim International GmbH, priority 2018, dated 2020):
pIC50: −log10 of the molar value.

Legend:
[1] = biological target: FLAG-tagged Vanin-1 (AA 22-493, T26I) (Homo sapiens (Human), UniProt O95497, T26I); test: Vanin-1 enzymatic assay; assay type: biochemical; conditions: formation of pantothenic acid from D-pantethine (3 μM), RapidFire MS; geometric mean in case of multiple measurements; read-out: VNN 1 IC50
Protocol: The test compounds are dissolved in 100% DMSO at a concentration of 10 mM and in a first step diluted in DMSO to a concentration of 5 mM, followed by serial dilution steps in 100% DMSO. Dilution factor and number of dilution steps may vary according to needs. Typically 8 different concentrations by 1:5 dilutions are prepared, a further intermediate dilutions of the substances is carried out with assay buffer resulting in 1% final DMSO concentration in the assay.
0.1 nM of FLAG-tagged Vanin-1 (AA 22-493, T26I, produced internally) and test compounds are incubated at room temperature for 20 minutes in assay buffer (1 mM DTT, 0.0025% Brij-35, 50 mM HEPES, pH7.5). D-Pantethine (Sigma, Cat #P2125-5G) in assay buffer is added (final concentration 3 μM) and incubated for additional 30 minutes at room temperature. Total assay volume typically is 40 μl but might be adjusted according to needs. Reaction is stopped by adding equal volume of stop solution as the reaction mixture to reach 100 nM HD-pantothenic acid (as an internal standard) and 1% TFA. Assay plates are centrifuged for 2 minutes and the formation of pantothenic acid is detected by RapidFire Mass Spectrometry (mobile phase A: 0.1% formic acid and 0.01% trifluoroacetic acid in water; mobile phase B: 47.5% acetonitrile, 47.5% methanol, 0.1% formic acid and 0.01% trifluoroacetic acid in water) using a C18, 12 μL cartridge (Agilent Cat #G9205A).
The values given in Table I result from measurements of one or more samples. In case of multiple measurements the geometric mean values are given.

[2] = system: Pantetheinase (vanin); test: Human Whole Blood assay; assay type: cell-based; conditions: formation of pantothenic acid after pantethine supplementation, RapidFire MS, read-out: HWB IC50
Protocol: Human Whole Blood assay: Pantetheinase (vanin) converts panteheine into pantothenic acid and cysteamine. Accordingly, in the described protocol vanin activity is quantified by formation of pantothenic acid after pantetheine supplementation via pantethine. The assay is applicable to identify vanin inhibitors. Compound stocks were dissolved in DMSO at 10 mM. Further dilutions were performed in RPMI 1640 medium (Gibco, #A-10491-01) and final concentrations in the assay were 0.032 nM-500 nM.
Human blood was drawn into a blood bag (1% heparin, 50 I.E./mL). Blood was aliquoted into cavities of 96-deep-well plates at 290 μL and mixed with 10 μL compound solution or vehicle (30 sec at 1400 rpm on a shaker). Equilibration followed at room temperature, 250 rpm and for 30 min. The assay was started by adding 10 μL of substrate solution (20 μM pantethine in 1 mM DTT, 0.0025% Brij-35, 50 mM HEPES, pH7.5) to each well, except for some blank wells which received […] substrate buffer (1 mM DTT, 0.0025% Brij-35, 50 mM HEPES, pH7.5) only. Samples were thoroughly shaken (30 sec, 1400 rpm) and reaction was allowed to take place at room temperature, 250 rpm and for 5 min. The reaction was stopped by addition of a vanin tool inhibitor in excess (BI-1 total conc. 10 μM). Centrifugation of the plate followed at 4° C., 665 G for 10 min. Then the blood plasma samples (100 μL) were transferred into another 96-deep-well plate and proteins were precipitated (5 min on ice) by adding 100 μL of ice cold precipitation solution (1 μM labelled pantothenic acid (di-β-alanine-13C6,15N2 calcium salt, Sigma, #705837) in acetonitrile). Afterwards the plate was centrifuged (4° C., 3220 G, 10 min) and supernatants (50 μL) were collected into another 96-deep-well plate and mixed (10 sec, 1400 rpm) with 150 μL ice cold formic acid (0.1%, Carl Roth GmbH+Co.KG, #CP03.1). The formation of pantothenic acid is detected by RapidFire Mass Spectrometry. A TripleQuad 6500+ (ABSciex, Germany) was equipped with an LC-1290 system, a RapidFire autosampler (Agilent, Germany) and a C18 cartridge Type C 12 μL (Agilent Cat #G9526-80000). Mobile phase A was consisting of 0.09% formic acid and 0.01% trifluoroacetic acid in water and mobile phase B of 0.09% formic acid and 0.01% trifluoroacetic acid in acetonitrile/methanol/water=47.5/47.5/5.

Sequence of FLAG-tagged Vanin-1 (AA 22-493, T26I) (O95497 22-493 T26I): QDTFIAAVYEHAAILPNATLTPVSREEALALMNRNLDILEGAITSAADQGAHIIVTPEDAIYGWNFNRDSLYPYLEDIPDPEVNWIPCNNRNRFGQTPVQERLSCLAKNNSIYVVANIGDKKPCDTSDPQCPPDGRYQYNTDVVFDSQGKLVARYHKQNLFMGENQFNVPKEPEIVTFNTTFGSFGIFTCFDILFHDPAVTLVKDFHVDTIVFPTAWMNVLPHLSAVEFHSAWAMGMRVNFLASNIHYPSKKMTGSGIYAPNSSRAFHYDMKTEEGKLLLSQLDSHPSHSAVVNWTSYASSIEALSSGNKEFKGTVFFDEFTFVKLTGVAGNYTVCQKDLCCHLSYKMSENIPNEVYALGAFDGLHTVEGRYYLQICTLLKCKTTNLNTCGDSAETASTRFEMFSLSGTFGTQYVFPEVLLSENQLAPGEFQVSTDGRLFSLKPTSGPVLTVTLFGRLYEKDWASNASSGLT

Row | SMILES | pIC50 [1] | pIC50 [2]
1 | CC(=O)N(C)[C@H]1CCN(C(=O)c2cnc3c(c2)CC(C)(c2ccc(Cl)cc2)N3)C1 (mixture of isomers) [Example 8.1, N-[(3S)-1-[2-(4-Chlorophenyl)-2-methyl-1H,2H,3H-pyrrolo[2,3-b]pyridine-5-carbonyl]pyrrolidin-3-yl]-N-methylacetamide] | 9.70 | 8.37
2 | CC(=O)N(C)[C@H]1CCN(C(=O)c2cnc3c(c2)CC(C)(C)N3)C1 [Example 1.1, N-[(3S)-1-{2,2-Dimethyl-1H,2H,3H-pyrrolo[2,3-b]pyridine-5-carbonyl}pyrrolidin-3-yl]-N-methylacetamide] | 8.60 | 
3 | CC1(C)Cc2cc(C(=O)N3CC[C@H](N4CCCC4=O)C3)cnc2N1 [Example 1.2] | 8.82 | 7.94
4 | CC1(C)Cc2cc(C(=O)N3CC[C@H](N4CCOC4=O)C3)cnc2N1 [Example 1.3] | 8.80 | 
5 | CC1(C)Cc2cc(C(=O)N3CCC4(CCOCC4)C3)cnc2N1 [Example 1.4] | 8.31 | 
6 | CC1(C)Cc2cc(C(=O)N3CC4(CCOCC4)C3)cnc2N1 [Example 1.5] | 7.98 | 
7 | CN(C(=O)C1CCC1)[C@H]1CCN(C(=O)c2cnc3c(c2)CC(C)(C)N3)C1 [Example 2.1, N-[(3S)-1-{2,2-Dimethyl-1H,2H,3H-pyrrolo[2,3-b]pyridine-5-carbonyl}pyrrolidin-3-yl]-N-methylcyclobutanecarboxamide] | 9.05 | 8.60
8 | CN(C(=O)C1(C#N)CC1)[C@H]1CCN(C(=O)c2cnc3c(c2)CC(C)(C)N3)C1 [Example 2.2] | 8.96 | 8.02
9 | CN(C(=O)C1(C)CCC1)[C@H]1CCN(C(=O)c2cnc3c(c2)CC(C)(C)N3)C1 [Example 2.3] | 8.34 | 
10 | CN(C(=O)C1CC(F)(F)C1)[C@H]1CCN(C(=O)c2cnc3c(c2)CC(C)(C)N3)C1 [Example 2.4] | 9.22 | 8.55
11 | CN(C(=O)C1CC1)[C@H]1CCN(C(=O)c2cnc3c(c2)CC(C)(C)N3)C1 [Example 2.5] | 8.68 | 
12 | CN(c1ncccn1)[C@H]1CCN(C(=O)c2cnc3c(c2)CC(C)(C)N3)C1 [Example 3.1, N-[(3S)-1-{2,2-Dimethyl-1H,2H,3H-pyrrolo[2,3-b]pyridine-5-carbonyl}pyrrolidin-3-yl]-N-methylpyrimidin-2-amine] | 8.64 | 7.42
13 | C[C@]1(c2cccc(F)c2)Cc2cc(C(=O)N3CC[C@H](N4CCOC4=O)C3)cnc2N1 [Example 4.1, 3-[(3S)-1-[(2R)-2-(3-Fluorophenyl)-2-methyl-1H,2H,3H-pyrrolo[2,3-b]pyridine-5-carbonyl]pyrrolidin-3-yl]-1,3-oxazolidin-2-one] | 10.00 | 8.85
14 | CC(=O)N(C)[C@H]1CCN(C(=O)c2cnc3c(c2)C[C@@](C)(c2cccc(F)c2)N3)C1 [Example 4.2] | 8.77 | 
15 | CC(=O)N(C)[C@H]1CCN(C(=O)c2cnc3c(c2)C[C@](C)(c2cccc(F)c2)N3)C1 [Example 4.3] | 10.00 | 8.85
16 | C[C@]1(c2cccc(F)c2)Cc2cc(C(=O)N3CC[C@H](N4CCCC4=O)C3)cnc2N1 [Example 4.4] | 10.00 | 8.68
17 | C[C@]1(c2ccc(F)cc2)Cc2cc(C(=O)N3CCC4(CCOCC4)C3)cnc2N1 [Example 5.1, 2-[(2R)-2-(4-Fluorophenyl)-2-methyl-1H,2H,3H-pyrrolo[2,3-b]pyridine-5-carbonyl]-8-oxa-2-azaspiro[4.5]decane] | 9.40 | 8.44
18 | C[C@]1(c2ccc(F)cc2)Cc2cc(C(=O)N3CC[C@H](N4CCOC4=O)C3)cnc2N1 [Example 5.2] | 10.00 | 8.82

Row | SMILES | pIC50 [1] | pIC50 [2]
19 | CC(=O)N(C)[C@H]1CCN(C(=O)c2cnc3c(c2)C[C@@](C)(c2ccc(F)cc2)N3)C1 [Example 5.4] | 7.06 | 
20 | C[C@]1(c2cccc(Cl)c2)Cc2cc(C(=O)N3CC[C@H](N4CCCC4=O)C3)cnc2N1 [Example 7.1, (3′S)-1′-[2-(3-Chlorophenyl)-2-methyl-1H,2H,3H-pyrrolo[2,3-b]pyridine-5-carbonyl]-[1,3′-bipyrrolidine]-2-one] | 10.00 | 
21 | CC(=O)N(C)[C@H]1CCN(C(=O)c2cnc3c(c2)C[C@@](C)(c2ccc(Cl)cc2)N3)C1 [Example 9.2, N-[(3S)-1-[(2S)-2-(4-Chlorophenyl)-2-methyl-1H,2H,3H-pyrrolo[2,3-b]pyridine-5-carbonyl]pyrrolidin-3-yl]-N-methylacetamide] | 8.85 | 
22 | CC(=O)N(C)[C@H]1CCN(C(=O)c2cnc3c(c2)C[C@@](C)(c2ccccc2)N3)C1 [Example 9.4] | 7.59 | 
23 | CC(=O)N(C)[C@H]1CCN(C(=O)c2cnc3c(c2)C[C@](C)(c2ccc(C#N)cc2)N3)C1 [Example 10, N-[(3S)-1-[(2R)-2-(4-Cyanophenyl)-2-methyl-1H,2H,3H-pyrrolo[2,3-b]pyridine-5-carbonyl]pyrrolidin-3-yl]-N-methylacetamide] | 9.70 | 
24 | CC1(C)CCc2cc(C(=O)N3CCC4(CCOCC4)C3)cnc2N1 [Example 11.1, 2-(7,7-Dimethyl-5,6,7,8-tetrahydro-1,8-naphthyridine-3-carbonyl)-8-oxa-2-azaspiro[4.5]decane] | 8.77 | 
25 | CC1(C)CCc2cc(C(=O)N3CC[C@H](N4CCOC4=O)C3)cnc2N1 [Example 11.5] | 8.37 | 
26 | CN(C(=O)C1(C#N)CC1)[C@H]1CCN(C(=O)c2cnc3c(c2)CCC(C)(C)N3)C1 [Example 11.7] | 8.31 | 
27 | CC(=O)N(C)[C@H]1CCN(C(=O)c2cnc3c(c2)CCC(c2ccccc2)N3)C1 (stereo partly drawn) [Example 12.1, N-Methyl-N-[(3S)-1-(7-phenyl-5,6,7,8-tetrahydro-1,8-naphthyridine-3-carbonyl)pyrrolidin-3-yl]acetamide] | 7.69 | 
28 | CC(=O)N(C)[C@H]1CCN(C(=O)c2cnc3c(c2)CCCCN3)C1 [Example 12.3] | 9.40 | 
29 | CC(=O)N(C)[C@H]1CCN(C(=O)c2cnc3c(c2)CCCC(C)(C)N3)C1 [Example 12.4] | 8.60 | 
30 | CC1(C)CCCc2cc(C(=O)N3CC[C@H](N4CCCC4=O)C3)cnc2N1 [Example 12.5] | 8.82 | 
31 | CN(C(=O)C1CC1)[C@H]1CCN(C(=O)c2cnc3c(c2)CCCC(C)(C)N3)C1 [Example 12.6] | 8.57 | 
32 | CC1(C)CCCc2cc(C(=O)N3CC[C@H](N4CCOC4=O)C3)cnc2N1 [Example 12.7] | 8.85 | 
33 | CN(C(=O)C1CCC1)[C@H]1CCN(C(=O)c2cnc3c(c2)CC[C@](C)(c2cncnc2)N3)C1 [Example 13.1, N-methyl-N-[(3S)-1-[(7R)-7-Methyl-7-(pyrimidin-5-yl)-5,6,7,8-tetrahydro-1,8-naphthyridine-3-carbonyl]pyrrolidin-3-yl]cyclobutanecarboxamide] | 9.70 | 
34 | CN(C(=O)C1CCC1)[C@H]1CCN(C(=O)c2cnc3c(c2)CC[C@@](C)(c2cncnc2)N3)C1 [Example 13.2, N-methyl-N-[(3S)-1-[(7S)-7-Methyl-7-(pyrimidin-5-yl)-5,6,7,8-tetrahydro-1,8-naphthyridine-3-carbonyl]pyrrolidin-3-yl]cyclobutanecarboxamide] | 7.63 | 
35 | CN(C(=O)C1CC1)[C@H]1CCN(C(=O)c2cnc3c(c2)CC[C@](C)(c2cncnc2)N3)C1 [Example 13.3] | 9.52 | 
36 | CN(C(=O)C1CC1)[C@H]1CCN(C(=O)c2cnc3c(c2)CC[C@@](C)(c2cncnc2)N3)C1 [Example 13.4] | 7.94 | 
